Like-named read-outs stand apart in the source and are kept apart here.
Target: T1, katalytischen Domäne der humanen Kollagenase -3(MMP-13) (Homo sapiens, UniProt P45452)
T1 construct: Die Enzymlösung enthält 1,67 µg/mL der Enzymdomäne; purchased INVITEK, Berlin 30100 803
Test: Enzymatic activity of the catalytic domain of human collagenase-3 (MMP-13), fluorogenic substrate
Type: biochemical
Procedure: Aktivierung des Proenzyms: 2 Volumenanteile Proenzym werden mit 1 Volumenanteil APMA-Lösung bei 37 °C für 1,5 Stunden inkubiert. Die APMA-Lösung wird aus einer 10 mmol/L p-Aminophenyl-Mercuric Acetate Lösung in 0,1 mmol/L NaOH durch Verdünnen mit 3 Volumenteile Tris/HCl Puffer pH7,5 (siehe unten) hergestellt. Der pH-Wert wird durch Zugabe von 1 mmol/L HCl zwischen 7;0 und 7,5 eingestellt. Nach der Aktivierung des Enzyms wird dieses mit dem Tris/HCl Puffer auf eine Konzentration von 1,67 µg/mL verdünnt.
Zur Messung der Enzymaktivität werden 10 µL Enzymlösung mit 10 µL einer 3%igen (v/v) gepufferten Dimethylsulfoxid-Lösung (Reaktion 1) für.15 Minuten inkubiert. Zur Messung der Enzyminhibitoraktivität werden 10 µL Enzymlösung mit 10 µL einer 3%igen (v/v) gepufferten Dimethylsulfoxid-Lösung, die den Enzyminhibitor enthält, inkubiert (Reaktion 2).
Die Enzymaktivität wird dargestellt als Extinktionszunahme/Minute. […] Die Pufferlösung enthält 0,05% Brij (Sigma, Deisenhofen, Deutschland) sowie 0,1 mol/L Tris/HCI, 0,1 mol/L NaCI, 0,01 mol/L CaCl2 (pH=7,5). Die Enzymlösung enthält 1,67 µg/mL der Enzymdomäne. Die Substratlösung enthält 0,75 mmol/L des fluorogenen Substrates (7-Methoxycoumarin-4-yl)acetyl-Pro-Leu-Gly-Leu-3-(2',4'-dinitrophenyl)-L-2,3-diaminopropionyl-Ala-Arg-NHz (Bachem, Heidelberg, Deutschland).

| IC50 (catalytic domain, APMA-activated pro-enzyme, Tris/HCl buffer pH 7,5, read-out: IC50 MMP13) [µM] | SMILES | IC50 (comparative example, same method as Table 4, read-out: IC50-Wertes für die Inhibition der humanen Kollagenase -3 (MMP-13)) [µM] |
| --- | --- | --- |
| 0.4 | O=C(NCc1ccccc1)c1cc(C(=O)NCc2ccccc2)ncn1 [Beispiel 1, Pyrimidin-4,6-dicarbonsäure-dibenzylamid] | – |
| – | CCNC(=O)c1cc(C(=O)NCC)ncn1 [Pyrimidin-4,6-dicarbonsäurediethylamid] | 90 |

— patent publication EP1455790B1, “USE OF PYRIDINE-2,4-DICARBOXYLIC ACID DIAMIDES AND OF PYRIMIDINE-4,6-DICARBOXYLIC ACID DIAMIDES FOR SELECTIVE COLLAGENASE INHIBITION” (Sanofi-Aventis Deutschland GmbH, priority 2001, dated 2003)
